# Assay results reported in US10016379B2, “Method of treatment for third spacing” (priority 2015, dated 2018).
# What was measured:
# [1] = system: third spacing of fluid refractory to sulfa/sulfonamide; experiment: Example 2: patient case, sulfa/sulfonamide compound stopped and patient placed on ethacrynic acid; type: in vivo; details: one patient; in one month; ethacrynic acid for a short period while stopping the sulfa/sulfonamide compound
# Text: A patient who suffered from a mental impairment but knew they were allergic to sulfa/sulfonamide compounds (their blood pressure fell), had clinical evidence of edema even though the patient was on a potent sulfa/sulfonamide medication. The patient was placed on ethacrynic acid for a short period of time while stopping the sulfa/sulfonamide compound and in one month, 40 pounds of fluid was removed. In this case, the patient not only had clinical evidence of edema, they also had third spacing of fluid refractory to sulfa/sulfonamide they were on. Unfortunately the patient was lost to follow up.
# [2] = system: patient's asthma, fluid retention, fatigue, weight loss and photo dermatitis; experiment: Example 1: patient case, furosemide stopped and replaced with ethacrynic acid; type: in vivo; details: one patient
# Text: In this case it is thought that decreasing the medications for allergies the patient was on may have contributed to the unmasking of an allergy to one of the components in the trade name compound.
smiles,measurement,setting,value
C=C(CC)C(=O)c1ccc(OCC(=O)O)c(Cl)c1Cl [ethacrynic acid],fluid removed,[1],40 pounds
same,laboratory studies,[2]; after replacing furosemide with ethacrynic acid,resolution of pyuria
same,"asthma, fluid retention, fatigue, weight loss and photo dermatitis",[2]; after stopping furosemide and replacing it with ethacrynic acid,improve within one weeks-time
same,"use of other medications for asthma, myalgia, dyspepsia and other symptoms",[2]; during ethacrynic acid treatment,less use or even elimination of other medications
same,tolerability (reason the patient could not continue the medication),[2]; trade name compound,adverse reaction to one of the constituents in the trade name compound
